Patent US5270302A, “Derivatives of tetrapeptides as CCK agonists” (priority 1991, dated 1993)
Structures can show the parent of a compound that is named as a salt. Where two headings read alike, the source gives them in different places. *1 amine or outer side, *2 acyl side, *3 side chain or, on linkers, in order; H or OH if unused. Where a SMILES comes first, the peptide text is derived from it. Side-chain parts run from the residue outwards. [ ]: non-standard residue; d: D form. The star is where a group is joined. 2Naphthoyl(6-OH) = O=C(c1ccc2cc(O)ccc2c1)*; NMeW = CN[C@@H](Cc1c[nH]c2ccccc12)C(=O)O; 1Nal = N[C@@H](Cc1cccc2ccccc12)C(=O)O; Butanoyl(3,3-Me2) = CC(C)(C)CC(=O)*; Isobutyloxycarbonyl = CC(C)COC(=O)*; Isopropoxycarbonyl = CC(C)OC(=O)*; X12 = O=C(C=Cc1ccc(C(F)(F)F)cc1)*; NMeF = CN[C@@H](Cc1ccccc1)C(=O)O; X10 = COc1ccc(C=CC(=O)*)c(OC)c1; NMeD = CN[C@@H](CC(=O)O)C(=O)O; NH(2-Me-phenyl) = Cc1ccccc1N*; X9 = CN(C)c1ccc(C=CC(=O)*)cc1; Suc = O=C(CCC(=O)[*:2])[*:1]; X1 = O=C(C=Cc1ccc(O)cc1)*; Cbz = O=C(OCc1ccccc1)*; PhAc = O=C(Cc1ccccc1)*; Boc = CC(C)(C)OC(=O)*; CO = O=C([*:1])[*:2]; Tfa = O=C(C(F)(F)F)*; NHtBu = CC(C)(C)N*; Moc = COC(=O)*

Columns and labels:
Type-B CCK receptor = molecular target: T1, Type-B CCK receptor (Cavia porcellus, UniProt H0VZC5); test: Radioligand binding of [125I]BH-CCK-8 in guinea pig cerebral cortical membrane preparations
T1 construct: Cortical and pancreatic membranes were prepared as described; from tissue; host or cells: guinea pig cerebral cortex membranes
T1 sequence (H0VZC5 1-426): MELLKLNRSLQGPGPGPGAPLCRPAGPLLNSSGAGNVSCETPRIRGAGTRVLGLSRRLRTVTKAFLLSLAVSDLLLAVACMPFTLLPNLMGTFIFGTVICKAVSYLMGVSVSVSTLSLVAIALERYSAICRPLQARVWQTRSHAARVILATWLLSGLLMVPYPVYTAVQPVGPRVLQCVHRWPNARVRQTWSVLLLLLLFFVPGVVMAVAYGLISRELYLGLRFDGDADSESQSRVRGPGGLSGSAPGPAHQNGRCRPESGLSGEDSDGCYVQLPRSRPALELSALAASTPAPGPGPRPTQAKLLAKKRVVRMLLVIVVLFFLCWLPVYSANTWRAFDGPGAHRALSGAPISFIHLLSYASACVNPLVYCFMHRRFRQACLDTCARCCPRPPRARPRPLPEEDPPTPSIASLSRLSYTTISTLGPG
Summary of the method: (§1)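 Membranes came from male guinea pig pancreas (type A) or cerebral cortex (type B) and were resuspended in pH 7.4 HEPES-EGTA-salt buffer containing bestatin and phosphoramidon. Test compounds competed with [125I]BH-CCK-8 in 0.1% BSA: cortex 150 min at 30 °C, pancreas 150 min at 37 °C. Reactions ended by filtration; IC50 from Hill analysis.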

Type-A CCK receptor = molecular target: T2, Type-A CCK receptor (Cavia porcellus, UniProt Q63931); test: Radioligand binding of [125I]BH-CCK-8 in guinea pig pancreatic membrane preparations
T2 construct: Cortical and pancreatic membranes were prepared as described; from tissue; host or cells: guinea pig pancreas membranes
T2 sequence (Q63931 1-430): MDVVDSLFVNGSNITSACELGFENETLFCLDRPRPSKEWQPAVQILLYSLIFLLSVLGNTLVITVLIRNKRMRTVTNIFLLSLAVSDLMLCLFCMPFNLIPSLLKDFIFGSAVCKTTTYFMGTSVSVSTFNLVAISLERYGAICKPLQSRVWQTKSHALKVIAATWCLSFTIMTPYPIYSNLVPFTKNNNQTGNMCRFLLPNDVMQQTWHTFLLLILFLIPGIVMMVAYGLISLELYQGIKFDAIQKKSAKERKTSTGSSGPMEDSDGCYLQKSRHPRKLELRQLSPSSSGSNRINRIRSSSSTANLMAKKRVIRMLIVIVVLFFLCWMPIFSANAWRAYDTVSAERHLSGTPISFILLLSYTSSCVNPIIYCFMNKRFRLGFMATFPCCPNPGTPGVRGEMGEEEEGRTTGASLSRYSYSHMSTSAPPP
Summary of the method: as §1

[1] = guinea pig cortical membranes, 30° C., 150 minutes, read-out: IC50 (nM) 125I-BH-CCK-8 Type-B receptor
[2] = guinea pig pancreatic membranes, 37° C., 150 min, read-out: IC50 (nM) 125I-BH-CCK-8 Type-A receptor
[3] = IC50 (nM) 125I-BH-CCK-8 Type-B receptor, guinea pig cortical membranes, 30° C., 150 minutes
[4] = IC50 (nM) 125I-BH-CCK-8 Type-A receptor, guinea pig pancreatic membranes, 37° C., 150 min

| Structure (SMILES) | IC50 (Type-B CCK receptor; [1]) [nM] | IC50 (Type-A CCK receptor; [2]) [nM] | IC50 (Type-B CCK receptor; [3]) [nM] | IC50 (Type-A CCK receptor; [4]) [nM] | further results |
| --- | --- | --- | --- | --- | --- |
| CN(C)c1ccc(C=CC(=O)NCCCC[C@H](NC(=O)[C@H](Cc2c[nH]c3ccccc23)NC(=O)OC(C)(C)C)C(=O)N[C@@H](CC(=O)O)C(=O)N[C@@H](Cc2ccccc2)C(N)=O)cc1 [Example 13, t-BOC-Trp-Lys(ε-N-(4-(dimethylamino)cinnamoyl))-Asp-PheNH2] (Boc-WK(X9)DF-NH2) | 2100 | 120 | – | – | – |
| Cc1ccccc1NC(=O)NCCCC[C@H](NC(=O)[C@H](Cc1c[nH]c2ccccc12)NC(=O)NC(C)(C)C)C(=O)N[C@@H](CC(=O)O)C(=O)N(C)[C@@H](Cc1ccccc1)C(N)=O [Example 82, t-Butylaminocarbonyl-Trp-Lys(ε-N-(2-methylphenyl)aminocarbonyl)-Asp(NMe)PheNH2] ({NHtBu-CO}-WK([CO-NH(2-Me-phenyl)])D[NMeF]-NH2) | – | – | – | – | IC50 (Type-B CCK receptor): 4400 nM; IC50 (Type-A CCK receptor): 4.9 nM |
| CN(C(=O)[C@H](CCCCNC(=O)c1ccc2cc(O)ccc2c1)NC(=O)[C@H](Cc1c[nH]c2ccccc12)NC(=O)OC(C)(C)C)[C@@H](CC(=O)O)C(=O)N(C)[C@@H](Cc1ccccc1)C(N)=O [Example 73] (Boc-WK(2Naphthoyl(6-OH))[NMeD][NMeF]-NH2) | 3700 | 15 | – | – | – |
| Cc1ccccc1NC(=O)NCCCC[C@H](NC(=O)[C@H](Cc1c[nH]c2ccccc12)NC(=O)OCc1ccccc1)C(=O)N[C@@H](CC(=O)O)C(=O)N(C)[C@@H](Cc1ccccc1)C(N)=O [Example 76, Benzyloxycarbonyl-Trp-Lys(ε-N-(2-methylphenyl)aminocarbonyl)-Asp-(NMe)PheNH2] (Cbz-WK([CO-NH(2-Me-phenyl)])D[NMeF]-NH2) | – | – | – | – | IC50 (Type-B CCK receptor): 6400 nM; IC50 (Type-A CCK receptor): 18 nM |
| CC(C)(C)OC(=O)N[C@@H](Cc1c[nH]c2ccccc12)C(=O)N[C@@H](CCCCNC(=O)C=Cc1ccc(C(F)(F)F)cc1)C(=O)N[C@@H](CC(=O)O)C(=O)N[C@@H](Cc1ccccc1)C(N)=O [Example 8, t-BOC-Trp-Lys(ε-N-(4-trifluoromethylcinnamoyl))-Asp-PheNH2] (Boc-WK(X12)DF-NH2) | 5300 | 200 | – | – | – |
| Cc1ccccc1NC(=O)NCCCC[C@H](NC(=O)CCc1c[nH]c2ccccc12)C(=O)N(C)[C@@H](CC(=O)O)C(=O)N[C@@H](Cc1ccccc1)C(N)=O [Example 65, 3-(3-Indolyl)propionyl-Lys(ε-N-(2-methylphenyl)aminocarbonyl)-(NMe)Asp-PheNH2] | 10000 | 68 | – | – | – |
| Cc1ccccc1NC(=O)NCCCC[C@H](NC(=O)[C@H](Cc1c[nH]c2ccccc12)NC(=O)CC(C)(C)C)C(=O)N(C)[C@@H](CC(=O)O)C(=O)N[C@@H](Cc1ccccc1)C(N)=O [Example 88B, t-butylacetyl-Trp-Lys(ε-N-(2-methylphenyl)aminocarbonyl)-(NMe)Asp-PheNH2] ({Butanoyl(3,3-Me2)}-WK([CO-NH(2-Me-phenyl)])[NMeD]F-NH2) | – | – | > 10000 | 3.7 | – |
| CN[C@@H](Cc1c[nH]c2ccccc12)C(=O)N[C@@H](CCCCNC(=O)Nc1ccccc1C)C(=O)N(C)[C@@H](CC(=O)O)C(=O)N[C@@H](Cc1ccccc1)C(N)=O [Example 69, HCl-(NMe)Trp-Lys(ε-N-(2-methylphenyl)aminocarbonyl)-(NMe)Asp-PheNH2] (H-[NMeW]K([CO-NH(2-Me-phenyl)])[NMeD]F-NH2) | – | – | – | 14 | IC50 (Type-B CCK receptor): > 10000 nM |
| CN(C(=O)[C@H](CCCCNC(=O)C=Cc1ccc(O)cc1)NC(=O)[C@H](Cc1c[nH]c2ccccc12)NC(=O)OC(C)(C)C)[C@@H](CC(=O)O)C(=O)N(C)[C@@H](Cc1ccccc1)C(N)=O [Example 72, t-BOC-Trp-Lys(ε-N-(4-hydroxycinnamoyl))-(NMe)Asp-(NMe)PheNH2] (Boc-WK(X1)[NMeD][NMeF]-NH2) | > 9000 | 12 | – | – | – |
| Cc1ccccc1NC(=O)NCCCC[C@H](NC(=O)[C@H](Cc1c[nH]c2ccccc12)NC(=O)C(F)(F)F)C(=O)N(C)[C@@H](CC(=O)O)C(=O)N[C@@H](Cc1ccccc1)C(N)=O [Example 88A, trifluoroacetyl-Trp-Lys(ε-N-(2-methylphenyl)aminocarbonyl)-(NMe)Asp-PheNH2] (Tfa-WK([CO-NH(2-Me-phenyl)])[NMeD]F-NH2) | – | – | > 10000 | 4.4 | – |
| Cc1ccccc1NC(=O)NCCCC[C@H](NC(=O)[C@H](Cc1c[nH]c2ccccc12)NC(=O)OCC(C)C)C(=O)N[C@@H](CC(=O)O)C(=O)N(C)[C@@H](Cc1ccccc1)C(N)=O [Example 77, Isobutyloxycarbonyl-Trp-Lys(ε-N-(2-methylphenyl)aminocarbonyl)-Asp-(NMe)PheNH2] (Isobutyloxycarbonyl-WK([CO-NH(2-Me-phenyl)])D[NMeF]-NH2) | – | – | 6500 | 2.3 | – |
| Cc1ccccc1NC(=O)NCCCC[C@H](NC(=O)CCc1c[nH]c2ccccc12)C(=O)N(C)[C@@H](CC(=O)O)C(=O)N(C)[C@@H](Cc1ccccc1)C(N)=O [Example 102] | 2500 | 14 | – | – | – |
| Cc1ccccc1NC(=O)NCCCC[C@H](NC(=O)C(C#N)Cc1c[nH]c2ccccc12)C(=O)N[C@@H](CC(=O)O)C(=O)N(C)[C@@H](Cc1ccccc1)C(N)=O (stereo partly shown) [Example 105, (2-Cyano-3-(3-indolyl)propionyl)-Lys(ε-N-(2-methylphenyl)aminocarbonyl)-Asp-(NMe)PheNH2] | 1300 | 20 | – | – | – |
| Cc1ccccc1NC(=O)NCCCC[C@H](NC(=O)CCc1c[nH]c2ccccc12)C(=O)N[C@@H](CC(=O)O)C(=O)N(C)[C@@H](Cc1ccccc1)C(N)=O [Example 70, 3-(Indol-3-yl)propionyl-Lys(ε-N-(2-methylphenyl)aminocarbonyl)-Asp-(NMe)PheNH2] | > 10000 | 13 | – | – | – |
| Cc1ccccc1NC(=O)NCCCC[C@H](NC(=O)[C@H](Cc1c[nH]c2ccccc12)NC(=O)Cc1ccccc1)C(=O)N[C@@H](CC(=O)O)C(=O)N(C)[C@@H](Cc1ccccc1)C(N)=O [Example 91, Phenylacetyl-Trp-Lys(ε-N-(2-methylphenyl)aminocarbonyl)-Asp-(NMe)PheNH2] (PhAc-WK([CO-NH(2-Me-phenyl)])D[NMeF]-NH2) | – | – | > 10000 | 19 | – |
| Cc1ccccc1NC(=O)NCCCC[C@H](NC(=O)[C@H](Cc1c[nH]c2ccccc12)NC(=O)OC(C)C)C(=O)N[C@@H](CC(=O)O)C(=O)N(C)[C@@H](Cc1ccccc1)C(N)=O [Example 78, Isopropyloxycarbonyl-Trp-Lys(ε-N-(2-methylphenyl)aminocarbonyl)-Asp-(NMe)PheNH2] (Isopropoxycarbonyl-WK([CO-NH(2-Me-phenyl)])D[NMeF]-NH2) | – | – | – | 1.6 | IC50 (Type-B CCK receptor): 5000 nM |
| COc1ccc(C=CC(=O)NCCCC[C@H](NC(=O)[C@H](Cc2c[nH]c3ccccc23)NC(=O)OC(C)(C)C)C(=O)N[C@@H](CC(=O)O)C(=O)N[C@@H](Cc2ccccc2)C(N)=O)c(OC)c1 [Example 23, t-BOC-Trp-Lys(ε-N-(2,4-dimethoxycinnamoyl))-Asp-PheNH2] (Boc-WK(X10)DF-NH2) | 3000 | 130 | – | – | – |
| Cc1ccccc1NC(=O)NCCCC[C@H](NC(=O)[C@H](Cc1c[nH]c2ccccc12)NC(=O)CCC(=O)O)C(=O)N[C@@H](CC(=O)O)C(=O)N(C)[C@@H](Cc1ccccc1)C(N)=O [Example 94, (3-Carboxylpropionyl)-Trp-Lys(ε-N-(2-methylphenyl)aminocarbonyl)-Asp-(NMe)PheNH2] (Suc-WK([CO-NH(2-Me-phenyl)])D[NMeF]-NH2) | – | – | – | – | IC50 (Type-B CCK receptor): 5600 nM; IC50 (Type-A CCK receptor): 16 nM |
| CN[C@@H](Cc1c[nH]c2ccccc12)C(=O)N[C@@H](CCCCNC(=O)Nc1ccccc1C)C(=O)N(C)[C@@H](CC(=O)O)C(=O)N[C@@H](Cc1cccc2ccccc12)C(N)=O [Example 100, (NMe)Trp-Lys(ε-N-(2-methylphenyl)aminocarbonyl)-(NMe)Asp-α-NalNH2] (H-[NMeW]K([CO-NH(2-Me-phenyl)])[NMeD][1Nal]-NH2) | – | – | 12000 | 8 | – |
| COC(=O)N[C@@H](Cc1c[nH]c2ccccc12)C(=O)N[C@@H](CCCCNC(=O)Nc1ccccc1C)C(=O)N(C)[C@@H](CC(=O)O)C(=O)N(C)[C@@H](Cc1ccccc1)C(N)=O [Example 124] (Moc-WK([CO-NH(2-Me-phenyl)])[NMeD][NMeF]-NH2) | – | – | 2600 | 4.5 | – |
